The target in assay [1] is T1, human islet amyloid polypeptide (Homo sapiens, UniProt P10997).
T1 sequence (P10997 34-70 limits assumed): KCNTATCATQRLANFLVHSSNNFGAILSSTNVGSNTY
The settings on record: cited from earlier work.

Another assay deals with tau (Homo sapiens, UniProt P10636). The assay can be described thus: Screening compounds for inhibition of RNA-facilitated tau oligomer formation (modified ELISA). The class given is biochemical. The settings on record: incubations with RQ11+12 RNA polyanion; FIG. 14. How it is done:
RNA polyanion was used to facilitate oligomer formation of tau protein in vitro using the following, preferred, conditions: 20 pmoles of tau412 was reacted with 4 pmoles of a 197 base RNA, i.e., RQ11+12, in 50 mM Tris-HCl buffer at pH of 7.4 and incubated for 1 hour at 37° C. […] The 5:1 ratio was optimal for the RNA RQT157 as well (FIG. 15). […] The kinetics of oligomer formation was rapid. […] Physiological pH and temperature were used in the assay to simulate biological conditions.
Formation of tau oligomers was analyzed using two different ELISA methods to provide verified data. The “modified” ELISA uses the same monoclonal antibody for capture and detection. Insoluble aggregates are removed in the ELISA procedure during washing steps. Only soluble aggregates of tau, not monomers, are detected with this ELISA because the detection and reporter antibody recognizes an epitope which is present only once within tau. At least one more tau molecule must be present in the complex for detection with the same antibody (method illustrated in FIG. 7). The modified ELISA used is similar to the modified ELISA previously used for identification of Aβ oligomers (Sian et al., Biochem. J. 349(Pt 1):299-308 2000)) and PrP oligomers (Vasan et al., Neurochem Res 31(5):629-37(2006)). […]
In general terms: In an ELISA, binding on a coated surface is turned into a signal by an enzyme label.

The target in the next assay is tau412 (Homo sapiens, UniProt P10636). The assay can be described thus: Polyanion-facilitated tau412 oligomer formation detected by ELISA (modified, A11, DC11). Type of assay: biochemical. The settings on record: for facilitation of tau412 oligomer formation by heparin or DNA: modified ELISA, FIGS. 13 and 16. How it is done: The 5:1 ratio was optimal for the RNA RQT157 as well (FIG. 15). […] The kinetics of oligomer formation was rapid. […] Physiological pH and temperature were used in the assay to simulate biological conditions. Formation of tau oligomers was analyzed using two different ELISA methods to provide verified data. The “modified” ELISA uses the same monoclonal antibody for capture and detection. Insoluble aggregates are removed in the ELISA procedure during washing steps. Only soluble aggregates of tau, not monomers, are detected with this ELISA because the detection and reporter antibody recognizes an epitope which is present only once within tau. At least one more tau molecule must be present in the complex for detection with the same antibody (method illustrated in FIG. 7). The modified ELISA used is similar to the modified ELISA previously used for identification of Aβ oligomers (Sian et al., Biochem. J. 349(Pt 1):299-308 2000)) and PrP oligomers (Vasan et al., Neurochem Res 31(5):629-37(2006)). This assay used antibody MN1000, recognizing tau epitope amino acids 159-163, for capture and biotinylated MN1000 as reporter. […] The second ELISA method to detect oligomers is based on polyclonal antibody A11 which recognizes a common structure in soluble amyloid oligomers (FIGS. 8-10, and 12). (Kayed et al., Science 300: 486-491(2003)). […] This assay was used to optimize the molar ratio of tau:RNA for oligomer formation (FIGS. 8 and 15), follow oligomer formation over time (FIG. 10), show tau oligomer formation with a range of RNAs (FIG. 12), and detect soluble tau oligomers in CSF (FIG. 11). A third ELISA was used to show biological relevance of the tau oligomers formed in this assay to tau in AD and is based on monoclonal antibodies DC11 used for capture and biotinylated MN1000 for reporter. The antibody DC11 recognizes a conformational epitope in tau specific for AD (Vechterova et al., Neuroreport 1:87-91 (2003)). […] Oligomer formation was determined by modified ELISA (described above). […]

Like-named read-outs stand apart in the source and are kept apart here.

Chain of tau412 (P10636 1-412 isoform P10636-7): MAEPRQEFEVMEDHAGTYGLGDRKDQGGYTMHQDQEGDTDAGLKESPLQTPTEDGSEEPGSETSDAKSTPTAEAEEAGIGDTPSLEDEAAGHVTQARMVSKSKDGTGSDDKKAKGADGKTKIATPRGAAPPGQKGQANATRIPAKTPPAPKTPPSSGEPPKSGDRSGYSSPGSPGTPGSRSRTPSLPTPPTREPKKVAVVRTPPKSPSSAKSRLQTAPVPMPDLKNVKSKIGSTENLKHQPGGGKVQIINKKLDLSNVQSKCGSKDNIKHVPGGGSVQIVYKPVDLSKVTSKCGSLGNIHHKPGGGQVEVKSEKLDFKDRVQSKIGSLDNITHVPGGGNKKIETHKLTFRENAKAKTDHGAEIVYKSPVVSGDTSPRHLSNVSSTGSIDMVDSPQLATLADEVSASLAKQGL
Chain of tau (P10636 1-412 isoform P10636-7): as above

Turning to `Cc1ccc(C(=O)Nc2ccc(S(=O)(=O)O)c3cc(S(=O)(=O)O)cc(S(=O)(=O)O)c23)cc1NC(=O)c1cccc(NC(=O)Nc2cccc(C(=O)Nc3cc(C(=O)Nc4ccc(S(=O)(=O)O)c5cc(S(=O)(=O)O)cc(S(=O)(=O)O)c45)ccc3C)c2)c1` [Suramin], the figures for the “effect on amyloid fibril formation” value in assay [1] (at high concentrations) and in assay [1] (at low concentrations) were “stimulated the process” and “inhibited amyloid fibril formation”, respectively.

Regarding `COc1cc(/C=C/C(=O)CC(=O)/C=C/c2ccc(O)c(OC)c2)ccc1O` [curcumin], at tau, the “inhibition of RNA-facilitated tau oligomer formation” value is reported as “inhibition”. On to Heparin, for which, at tau412, the “facilitation of tau412 oligomer formation by heparin or DNA” value is on record as “effective in facilitating tau oligomer formation”. Turning to Polydeoxythymidine, the “facilitation of tau412 oligomer formation by heparin or DNA” value at tau412 was “enhanced tau412 oligomer formation”. On to polyA, for which, on tau412 (5:1 tau:RNA ratio, detected with A11 Ab, FIG. 12), the “facilitation of tau oligomer formation by RNA” value was “facilitated tau oligomer formation”.

These data come from patent US20070218491A1, “Oligomerization of amyloid proteins” (Oligomerix, Inc., priority 2006, published 2007).
